Counter-ions that a name gives are not always drawn.
How the values were obtained:
[1] = tested on: durch Angiotensin I (AI) hervorgerufenen Blutdrucksteigerung; test: Inhibition of the blood pressure rise caused by angiotensin I in anaesthetised normotensive rats; assay type: in vivo, Ratte; details: rat, mean value 30 min after administration
From the text: Die neuen Verbindungen zeigen auch eine Hemmwirkung auf das Ansprechen des Blutdrucks von normotensiven Ratten auf Angiotensin I. Das Enzym Renin verursacht unter normalen Verhältnissen eine spezifische Hydrolyse des zirkulierenden Renin-Substrat-Proteins. Diese Hydrolyse ergibt das Angiotensin I, welches durch die Einwirkung des genannten Enzyms, welches das Angiotensin umwandelt, in das stark gefässverengernde Angiotensin II weiter hydrolysiert wird. Durch Hemmung des genannten Enzyms wird die Entstehung des Angiotensins II aus I verhindert. Diese Hemmung dämpft daher jedes Ansprechen des Blutdrucks nach einer Angiotenin-I-Attacke.
Der entsprechende in vivo Test wird mit männlichen, normotensiven Ratten, welche mit 100-120 mg/kg intraperitoneal verabreichtem Natriumsalz des Aethyl-(l-methylpropyl)-malonylthioharnstoffs narkotisiert sind, vorgenommen. Eine femurale Arterie und eine Wadenvene werden mit je einer Hohlnadel für die direkte Messung des Blutdrucks und für die intravenöse Verabreichung des Angiotensins I und der erfindungsgemässen Verbindungen, versehen. Nach der Stabilisierung des basalen Blutdrucks, wird die Druckänderung nach drei, in 5-minutigen Intervallen durchgeführten, Reizungen mit 0,33 µg/kg Angiotensin I i.v., bestimmt. Druckänderungen werden auch 5, 10, 15, 30 und 60 Minuten nach entweder intravenöser oder peroraler Verabreichung (mit Magensonde) der zu prüfenden Verbindungen bestimmt. Die letztgenannten Druckänderungen werden mit den Anfangswerten verglichen. Jede festgestellte Abnahme vom Ansprechen des Blutdrucks ist ein Hinweis auf die Hemmung des Enzyms, welches das Angiotensin umwandelt. Diese Abnahme kann bis zu 80%, nach Dosen von 10 mg/kg i.v. oder 50 mg/kg p.o., betragen und bis 60 Minuten lang andauern.
In der in vivo Prüfungsmethode wird zuerst durch Verabreichung des Angiotensins 1 (AI) an das Versuchstier eine Blutdrucksteigerung hervorgerufen. Es wird dann die Hemmung der einzelnen Verbindungen auf diese Blutdrucksteigerung gemessen.
II. Methode der Hemmung der durch Angiotensin I (AI) hervorgerufenen Blutdrucksteigerung, durch intravenöse Verabreichung der Testverbindung (Z AI-Hemmung) In diesen Untersuchungen wird wie oben beschrieben, je ein Katheter in eine femurale Arterie und in eine Wadenvene der Ratte eingeführt.
Der arterielle Druck wurde von dem Arterienkatheter aus registriert, während man Angiotensin I (AI) und die einzelnen Testverbindungen durch den Venenkatheter injiziert hatte. Die Hemmung der durch Angiotensin I verursachten Blutdrucksteigerung ist in der Tabelle als Durchschnittswert 30 Minuten nach der Verabreichung von ausgewählten Dosen der jeweiligen Verbindung wiedergegeben. Dabei werden solche Dosierungen ausgewählt, so dass u.a. der ID50 (i.v.)-Wert ermittelt werden kann.

[2] = biological target: T1, angiotensin converting enzyme = ACE (Oryctolagus cuniculus, UniProt P12822); test: In vitro ACE inhibition (ACEI), release of histidyl-leucine from hippuryl-histidyl-leucine, rabbit lung tissue preparation; assay type: biochemical, Kaninchen; details: incubation 30 min at 37°
T1 construct: Dieses Enzym wird aus Lungen von erwachsenen männlichen Kaninchen in Tris-Puffer; from tissue; host or cells: lung of adult male rabbits
T1 sequence (P12822 34-1310): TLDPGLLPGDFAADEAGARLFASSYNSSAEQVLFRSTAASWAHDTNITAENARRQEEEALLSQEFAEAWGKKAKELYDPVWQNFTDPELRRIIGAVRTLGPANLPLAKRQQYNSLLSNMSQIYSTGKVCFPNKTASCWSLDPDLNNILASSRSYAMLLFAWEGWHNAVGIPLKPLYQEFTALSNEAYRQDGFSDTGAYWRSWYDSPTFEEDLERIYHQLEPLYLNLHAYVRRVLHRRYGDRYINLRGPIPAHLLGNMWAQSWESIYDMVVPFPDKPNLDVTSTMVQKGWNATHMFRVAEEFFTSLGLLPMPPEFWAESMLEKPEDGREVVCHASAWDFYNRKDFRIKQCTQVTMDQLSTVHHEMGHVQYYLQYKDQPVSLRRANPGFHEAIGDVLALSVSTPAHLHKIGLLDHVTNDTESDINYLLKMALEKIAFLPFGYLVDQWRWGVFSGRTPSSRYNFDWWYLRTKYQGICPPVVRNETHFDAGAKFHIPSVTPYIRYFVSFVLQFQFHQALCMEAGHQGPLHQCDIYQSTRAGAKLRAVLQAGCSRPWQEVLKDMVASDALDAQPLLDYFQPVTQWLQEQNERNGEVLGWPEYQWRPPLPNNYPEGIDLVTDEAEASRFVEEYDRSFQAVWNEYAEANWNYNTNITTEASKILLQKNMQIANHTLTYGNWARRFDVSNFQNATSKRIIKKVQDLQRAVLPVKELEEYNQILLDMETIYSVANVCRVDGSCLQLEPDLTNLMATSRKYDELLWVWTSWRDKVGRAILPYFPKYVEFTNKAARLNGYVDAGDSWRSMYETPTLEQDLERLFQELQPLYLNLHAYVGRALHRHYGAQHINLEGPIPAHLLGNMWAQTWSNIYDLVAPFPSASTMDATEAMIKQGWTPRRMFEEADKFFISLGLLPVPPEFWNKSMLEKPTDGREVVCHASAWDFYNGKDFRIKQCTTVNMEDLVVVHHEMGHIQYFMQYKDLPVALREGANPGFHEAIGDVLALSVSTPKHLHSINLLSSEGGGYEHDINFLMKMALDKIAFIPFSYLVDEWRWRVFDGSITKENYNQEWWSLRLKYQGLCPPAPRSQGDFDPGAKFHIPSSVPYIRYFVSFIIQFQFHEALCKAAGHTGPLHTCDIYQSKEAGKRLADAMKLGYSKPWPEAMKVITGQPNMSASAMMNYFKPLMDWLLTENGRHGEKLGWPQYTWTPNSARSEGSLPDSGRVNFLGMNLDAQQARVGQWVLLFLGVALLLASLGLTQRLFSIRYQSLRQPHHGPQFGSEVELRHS
From the text: Die in vitro Hemmung des Enzyms, welches das Angiotensin umwandelt, kann bei den Verbindungen dieser Erfindung analog zu Biochim. Biophys. Acta 293, 451 (1973) nachgewiesen werden. Gemäss dieser Methode werden die genannten Verbindungen in ungefähr 1 mMol Konzentrationen in Phosphatpuffer, welcher von aussen mit Eis gekühlt wird, aufgelöst. Zu diesen Lösungen gibt man zuerst verschiedene µl-Mengen von 1 mMolarem Histidyl-leucin in Phosphatpuffer und dann 100 pl von 5mMolarem Hippuryl-histidyl-leucin in Phosphatpuffer und 50 pl des Angiotensin-umwandelnden Enzyms. Dieses Enzym wird aus Lungen von erwachsenen männlichen Kaninchen in Tris-Puffer, der Kalium-und Magnesiumchlorid und auch Rohrzucker enthält, frisch hergestellt. Die genannten Lösungen werden 30 Minuten bei 37° inkubiert und die weitere Reaktion wird durch Hinzufügen von 0,75 ml einer 0,6-normalen wässerigen Natriumhydroxidlösung gestoppt. Dann gibt man bei Zimmertemperatur 100 µl o-Phthalaldehyd und nach 10 Minuten 100 µl 6-normaler Chlorwasserstoffsäure dazu. Die Proben werden in einem Spektroghotometer bei 360 nm mit Wasser verglichen und ihre optische Dichte wird bestimmt. Diese Werte werden durch einen Konversionsfaktor einer Standard-Kurve angepasst, wobei man die während der genannten Inkubation von 30 Minuten gebildete Histidyl-leucin-Menge in Nanomolen erhält. Die Ergebnisse werden, um den IC50-Wert zu bestimmen, gegenüber den Wirkstoff-Konzentrationen graphisch als Kurve dargestellt. Dieser Wert bedeutet diejenige Wirkstoff-Konzentration, welche die Hälfte der Aktivität einer Kontrollprobe, die keinen Wirkstoff enthält, ergibt. Die genannten repräsentativen Verbindungen der vorliegenden Erfindung sind auch in diesem in vitro Testsystem, bis zu dem IC50-Wert von 39 nM und darunter, sehr wirksam.
Die Prüfung der Wirkung von Verbindungen ist gemäss den Methoden für die Auswertung der Hemmung des Enzyms, welches das Angiotensin umwandelt [angiotensin converting enzyme = ACE] durchgeführt worden. […]

IC50 [2] | SMILES | % AI Hemmungen ([1]; i.v. Dosis 0.1 mg/kg) | % AI Hemmungen ([1]; i.v. Dosis 0.03 mg/kg) | % AI Hemmungen ([1]; i.v. Dosis 0.06 mg/kg) | % AI Hemmungen ([1]; i.v. Dosis 1.0 mg/kg)
6 nM | C[C@H](NC(CCc1ccccc1)C(=O)O)C(=O)N1c2ccccc2C[C@H]1C(=O)O (stereo partly drawn) [Beispiel 1, 1-[N-(1-Carboxy-3-phenylpropyl)-S-alanyl]-indolin-2S-carbonsäure] | 80% |  |  | 
 | CCOC(=O)[C@H](CCc1ccccc1)N[C@@H](C)C(=O)N1c2ccccc2C[C@H]1C(=O)O [Beispiel 4, 1-[N-(lS-Carboäthoxy-3-phenyl-propyl)-S-alanyl]-indolin-2S-carbonsäurehydrochlorid] | 95% | 33% | 80% | 
8000 nM | CCOC(=O)[C@@H](CCc1ccccc1)N[C@@H](C)C(=O)N1c2ccccc2C[C@H]1C(=O)O [Beispiel 6, 1-[N-(lR-Carboäthoxy-3-phenyl-propyl)-S-alanyl]-indolin-2S-carbonsäure-hydrochlorid] | 35% |  |  | 
30 nM | C[C@H](NC(Cc1ccccc1)C(=O)O)C(=O)N1c2ccccc2C[C@H]1C(=O)O (stereo partly drawn) [Beispiel 7, 1-[N-(1-Carboxy-2-phenyl-äthyl)-S-alanyl]-indolin-2S-carbonsäure] |  |  |  | 80%
